Test results as given in US11999745B2, “Pharmaceutical compounds” (Heptares Therapeutics Limited, priority 2020, dated 2024).
≈ marks a conversion by molar mass, not a printed value. Where “and” joins values, the source holds several entries; their conditions need not be identical. Equal values may be shown once. Read-outs that look alike come from different tables or passages of the source.

Tests used:
[1] = Hepatocyte stability, CLint (in vitro hepatocytes), human; format: in vitro ADME; details: pooled cryopreserved hepatocytes, 1.0 million cells/mL, 37° C., read-out: in vitro intrinsic clearance (CLint)
Description: (§1) Hepatocyte stability assays were performed using pooled cryopreserved hepatocytes (Bioreclamation). Test compounds prepared in DMSO, were incubated at an initial concentration of 1 μM (0.25% DMSO final, n=2) with hepatocytes at cell densities of 1.0 million cells/mL at 37° C. Aliquots were removed at 0.5, 5, 10, 15, 30, 60 and 120 minutes for termination of reactions and compound extraction with acetonitrile containing an analytical internal standard (0.5 μM carbamazepine). Samples were centrifuged and the supernatant fractions analysed for parent compound by mass spectrometry (LC-MS/MS). The amount of compound remaining (expressed as %) was determined from the MS response in each sample relative to that in the T=0 samples (normalised for internal standard). Ln plots of the % remaining were used to determine the half-life for compound disappearance using the relationship: Half-Life(min)=−0.693/λ (where λ is the slope of the Ln % remaining vs time curve).

[2] = Aqueous solubility (thermodynamic), LCMS/MS method; format: physicochemical; details: 1 mg/mL theoretical, individual replicates; for solubility thermodynamic at 4 h: 25 °C, thermodynamic from solid
Description: A 10 mM stock solution (in DMSO) was prepared for the test sample. From the 10 mM stock solution, a working solution of 1 μM was prepared by diluting the test sample in mobile phase solution (typically, methanol: 2 mM ammonium acetate containing suitable internal standard (IS)—carbamazepine/any other suitable IS). Further, the working solution was serially diluted in mobile phase solution up to 5 to 6 linearity point to prepare standard solution for plotting calibration curve. The area for each standard sample is analyzed in singlet using LCMS/MS. The normalized area values are plotted vs. concentration to achieve calibration equation to determine the unknown sample. […] Test compound was dispersed in buffer solution using a vortex mixer.
The resulting solution are then kept on RotoSpin (shaker) at 50 rpm for 4 hours for TD solubility at room temperature (25° C.). After the incubation period, the solution is filtered using 0.45 micron PVDF injector filters in order to remove the insoluble fraction of the compound. Filtrate is diluted in mobile phase and subsequently the AUC is ascertained for diluted samples using LCMS/MS. From the AUC of test sample the corresponding concentration is calculated using 5 to 6 point linearity/calibration curve.
All numbers reported as uM.

[3] = Hepatocyte stability, CLint (in vitro hepatocytes), rat; format: in vitro ADME; details: pooled cryopreserved hepatocytes, 1.0 million cells/mL, 37° C., read-out: in vitro intrinsic clearance (CLint)
Description: as §1

[4] = Hepatocyte stability, CLint (in vitro hepatocytes), monkey; format: in vitro ADME; details: pooled cryopreserved hepatocytes, 1.0 million cells/mL, 37° C., read-out: in vitro intrinsic clearance (CLint)
Description: as §1

[5] = Fraction unbound (fu) in plasma or brain tissue homogenate; format: in vitro ADME; details: parameter used in receptor occupancy prediction
Source text: fu—fraction of compound unbound in plasma or brain tissue homogenate

[6] = test system: scPCP treated female Lister Hooded rats; assay: Attenuation of sub-chronic PCP-induced deficit in the operant reversal learning task; format: in vivo, rat; details: p.o., 1 hour ptt
Description: Investigate the ability of Example 1 (1, 3, 10 and 30 mg/kg, p.o., 1 hour pre-treatment time ptt) to attenuate the disruption of a cognitive task induced by sub-chronic treatment with phencyclidine (scPCP) in female Lister Hooded rats.
Female Lister Hooded rats were used for this experiment. The average weight of rats at the time of testing was 294 g±29 g. Rats were housed in groups of 3-5 under standard laboratory conditions under a 12 hr light: dark cycle (lights on at 0700 hr), and food restricted to 90% of free-feeding bodyweight (12 g of food per rat per day). Testing was carried out in the light phase. Rats were randomly assigned to two treatment groups and received vehicle, n=8 (0.9% saline solution, i.p.) or PCP, n=48 (2 mg/kg, i.p. twice daily for 7-days). On the day of testing, rats were randomly assigned to seven treatment groups (n=6-8 per group) to receive an acute treatment with Example 1 (1, 3, 10 and 30 mg/kg, p.o., 1 hour ptt) or vehicle. […]
Following habituation to the operant chambers, rats were trained to respond for food on an FR1 (Fixed Ratio 1) schedule of reinforcement with both levers active. […] Each session lasted 20 minutes and counts were recorded on each lever. […]
The day before each reversal learning task session, a full […] operant training session (as described above) was conducted to ensure stable responding. […] During this period, responses on both correct and incorrect levers were recorded. […] Responses made on the correct and incorrect levers were again recorded. […]
Data are presented as percent correct response (±S.E.M) with values for the initial and reversal phases are presented for the different drug treatment groups (FIG. 2). The percentage correct response data were used to determine whether there was a significant effect of drug on response accuracy (e.g. that might reflect cognitive dysfunction); Statistical significance was assumed when P<0.05 and was determined using one-way ANOVA in order to detect main effect of drug treatment in the initial and reversal phases.

[7] = Hepatocyte stability, CLint (in vitro hepatocytes), mouse; format: in vitro ADME; details: pooled cryopreserved hepatocytes, 1.0 million cells/mL, 37° C., read-out: in vitro intrinsic clearance (CLint)
Description: as §1

## CC(C)(C)NC(=O)C1CCN([C@H]2C[C@H]3CC[C@@H](C2)N3c2nc(C(F)(F)F)no2)CC1 [Example 1, N-tert-butyl-1-{(1R,3r,5S)-8-[3-(trifluoromethyl)-1,2,4-oxadiazol-5-yl]-8-azabicyclo[3.2.1]octan-3-yl}piperidine-4-carboxamide]
[1]
  hepatocyte CLint at 1 μM: < 5 µL/min/1e6 cells
[2]; Blank FaSSIF (Aq. Buffer) pH 6.5, 4 hours, 25° C.
  Thermodynamic solubility, Blank FaSSIF pH 6.5 (n = 4): 1941 uM and 1937 uM and 2022 uM
[2]; Blank FaSSIF (aqueous buffer), pH 6.5, aqueous buffer, Blank FaSSIF (Aq. Buffer) pH 6.5, 4 hours, read-out: Thermodynamic solubility, Blank FaSSIF pH 6.5 (n = 4)
  solubility thermodynamic at 4 h: 1740 µM (≈ 749 µg/mL)
[2]; FaSSIF pH 6.5, 4 hours, 25° C.
  Thermodynamic solubility, FaSSIF pH 6.5 (n = 4): 2448 uM and 1713 uM and 2104 uM
[2]; FaSSIF, pH 6.5, fassif, FaSSIF pH 6.5, 4 hours, read-out: Thermodynamic solubility, FaSSIF pH 6.5 (n = 4)
  solubility thermodynamic at 4 h: 2010 µM (≈ 862 µg/mL)
[2]; SGF pH 1.2, 4 hours, 25° C.
  Thermodynamic solubility, SGF pH 1.2 (n = 4): 1988 uM and 1702 uM and 2039 uM
[2]; SGF, pH 1.2, simulated gastric fluid, SGF pH 1.2, 4 hours, read-out: Thermodynamic solubility, SGF pH 1.2 (n = 4)
  solubility thermodynamic at 4 h: 2080 µM (≈ 893 µg/mL)
[3]
  hepatocyte CLint at 1 μM: 8 µL/min/1e6 cells
[4]
  hepatocyte CLint at 1 μM: < 5 µL/min/1e6 cells
[5]
  fraction unbound: 0.682
[6]; 1 mg/kg, P<0.05
  percent correct responding in the reversal phase vs scPCP group: increased percent correct responding
[6]; 3 mg/kg, P<0.05
  percent correct responding in the reversal phase vs scPCP group: increased percent correct responding
[6]; 10 mg/kg, P<0.01
  percent correct responding in the reversal phase vs scPCP group: increased percent correct responding
[7]
  hepatocyte CLint at 1 μM: 7 µL/min/1e6 cells
